Experimental data as given in US20100113510A1 (priority 2006, published 2010).

molecular target: T1, human muscarinic acetylcholine M3 receptor (M3-ACh) (Homo sapiens, UniProt P20309); assay: biochemical; type: binding; details: pIC50
T1 construct: expressed in transfected cells; host or cells: CHO-K1 (Chinese Hamster Ovary) cell membranes
T1 sequence (P20309 whole entry): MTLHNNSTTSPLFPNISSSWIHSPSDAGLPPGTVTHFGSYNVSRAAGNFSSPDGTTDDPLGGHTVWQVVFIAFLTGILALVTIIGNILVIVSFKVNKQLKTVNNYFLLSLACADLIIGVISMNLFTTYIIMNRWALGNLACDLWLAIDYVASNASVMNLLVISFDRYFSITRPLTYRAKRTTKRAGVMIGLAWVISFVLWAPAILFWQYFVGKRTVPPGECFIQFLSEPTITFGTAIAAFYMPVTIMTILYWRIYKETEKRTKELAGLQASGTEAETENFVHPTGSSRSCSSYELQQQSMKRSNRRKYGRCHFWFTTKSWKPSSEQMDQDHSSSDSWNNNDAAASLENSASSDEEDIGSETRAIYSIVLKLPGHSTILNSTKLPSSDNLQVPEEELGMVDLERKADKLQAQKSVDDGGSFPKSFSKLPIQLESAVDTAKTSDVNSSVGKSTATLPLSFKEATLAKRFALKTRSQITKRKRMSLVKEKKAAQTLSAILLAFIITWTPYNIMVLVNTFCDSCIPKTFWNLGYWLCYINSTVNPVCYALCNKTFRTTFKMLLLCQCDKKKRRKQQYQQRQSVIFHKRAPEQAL

Compound `CC(C(=O)O[C@H]1C[N+]2(CC(=O)Nc3ccon3)CCC1CC2)(c1ccccc1)N1CCCCCC1` (single isomer, unassigned) [Example 90] has an IC50 of 0.631 nM.

same assay, conditions: pIC50 (M3 Binding IC50 classes)

Compared with `CC1(C)CN(C(C)(C(=O)O[C@H]2C[N+]3(CCCOc4ccccc4)CCC2CC3)c2ccc(Cl)cc2)C1` (single isomer, unassigned) [Example 46], `CC1(C)CN(C(C)(C(=O)O[C@H]2C[N+]3(CCCOc4ccccc4)CCC2CC3)c2ccccc2)C1` (single isomer, unassigned) [Example 48] is lower in IC50: over 10 nM for the first, 2 to 10 nM for the second. The second is the more potent here.

`CC1(C)CN(C(C)(C(=O)O[C@H]2C[N+]3(CCCOc4ccccc4)CCC2CC3)c2ccc(Cl)cc2)C1` (single isomer, unassigned) [Example 47] and `CC(C(=O)O[C@H]1C[N+]2(CCCOc3ccccc3)CCC1CC2)(c1ccccc1)N1CCSCC1` (single isomer, unassigned) [Example 107] cannot be ordered by IC50: under 2 nM for the first, under 2 nM for the second.

`CC(C(=O)O[C@H]1C[N+]2(CCCOc3ccccc3)CCC1CC2)(c1cccs1)N1CCSCC1` (single isomer, unassigned) [Example 49] and `CC(C(=O)O[C@H]1C[N+]2(CCCc3ccccc3)CCC1CC2)(c1cccs1)N1CCSCC1` (single isomer, unassigned) [Example 50] cannot be ordered by IC50: under 2 nM for the first, under 2 nM for the second.

`CC(C(=O)O[C@H]1C[N+]2(CCc3cccc(F)c3)CCC1CC2)(c1cccs1)N1CCSCC1` (single isomer, unassigned) [Example 51] and `CC(C(=O)O[C@H]1C[N+]2(CCc3cccc(Cl)c3)CCC1CC2)(c1cccs1)N1CCSCC1` (single isomer, unassigned) [Example 52] cannot be ordered by IC50: under 2 nM for the first, under 2 nM for the second.

`CC(C(=O)O[C@H]1C[N+]2(CC(=O)Nc3cccc(F)c3)CCC1CC2)(c1cccs1)N1CCSCC1` (single isomer, unassigned) [Example 53] and `CC(C(=O)O[C@H]1C[N+]2(CC(=O)Nc3cccc(F)c3)CCC1CC2)(c1ccccc1)N1CCSCC1` (single isomer, unassigned) [Example 100] cannot be ordered by IC50: under 2 nM for the first, under 2 nM for the second.

`CC(C(=O)O[C@H]1C[N+]2(CC(=O)Nc3cnccn3)CCC1CC2)(c1cccs1)N1CCSCC1` (single isomer, unassigned) [Example 54] and `Cc1cnc(NC(=O)C[N+]23CCC(CC2)[C@@H](OC(=O)C(C)(c2cccs2)N2CCCCC2)C3)cn1` (single isomer, unassigned) [Example 76] cannot be ordered by IC50: under 2 nM for the first, under 2 nM for the second.

Compared with `CC(C(=O)O[C@H]1C[N+]2(Cc3cc(-c4ccccc4)no3)CCC1CC2)(c1cccs1)N1CCSCC1` (single isomer, unassigned) [Example 55], `CC(C(=O)O[C@H]1C[N+]2(Cc3nc(-c4ccccc4)no3)CCC1CC2)(c1cccs1)N1CCSCC1` (single isomer, unassigned) [Example 56] is lower in IC50: 2 to 10 nM for the first, under 2 nM for the second. The second is the more potent here.

`Cc1ccc(OCC[N+]23CCC(CC2)[C@@H](OC(=O)C(C)(c2cccs2)N2CCCCC2)C3)c(C)n1` (single isomer, unassigned) [Example 66] and `Cc1cc(OCCC[N+]23CCC(CC2)[C@@H](OC(=O)C(C)(c2cccs2)N2CCCCC2)C3)cc(C)n1` (single isomer, unassigned) [Example 81] fall in the same range of IC50: 2 to 10 nM for the first, 2 to 10 nM for the second.

First: CC(C(=O)O[C@H]1C[N+]2(CC(=O)c3cccc(F)c3)CCC1CC2)(c1cccs1)N1CCCCC1 (single isomer, unassigned) [Example 67]
Second: CN(C(=O)C[N+]12CCC(CC1)[C@@H](OC(=O)C(C)(c1cccs1)N1CCCCC1)C2)c1cccc(F)c1 (single isomer, unassigned) [Example 109]
The IC50 of the first is lower: under 2 nM for the first, 2 to 10 nM for the second. The first is the more potent here.

`CC(C(=O)O[C@H]1C[N+]2(CC(=O)Nc3ccc(Cl)nn3)CCC1CC2)(c1cccs1)N1CCCCC1` (single isomer, unassigned) [Example 72] and `CC(C(=O)O[C@H]1C[N+]2(CC(=O)Nc3noc4ccccc34)CCC1CC2)(c1cccs1)N1CCCCC1` (single isomer, unassigned) [Example 77] cannot be ordered by IC50: under 2 nM for the first, under 2 nM for the second.

First: CC(C(=O)O[C@H]1C[N+]2(Cc3nc4ccccc4s3)CCC1CC2)(c1cccs1)N1CCCCC1 (single isomer, unassigned) [Example 75]
Second: C[C@@](C(=O)O[C@H]1C[N+]2(CC(=O)c3sccc3Cl)CCC1CC2)(c1ccccc1)N1CCCCC1 [Example 4, (3R)-1-[2-(3-Chloro-2-thienyl)-2-oxoethyl]-3-{[(2S)-2-phenyl-2-piperidin-1-ylpropanoyl]oxy}-1-azoniabicyclo[2.2.2]octane bromide]
The IC50 of the first is lower: under 2 nM for the first, 2 to 10 nM for the second.

`CC(C(=O)O[C@H]1C[N+]2(CCc3cccc(Cl)c3)CCC1CC2)(c1ccccc1)N1CCOCC1` (single isomer, unassigned) [Example 79] and `CC(C(=O)O[C@H]1C[N+]2(CCc3cccc(Cl)c3)CCC1CC2)(c1ccccc1)N1CCSCC1` (single isomer, unassigned) [Example 98] cannot be ordered by IC50: under 2 nM for the first, under 2 nM for the second.

`CC(C(=O)O[C@H]1C[N+]2(CCc3cccc(Cl)c3)CCC1CC2)(c1ccccc1)N1CCOCC1` (single isomer, unassigned) [Example 80] and `CC(C(=O)O[C@H]1C[N+]2(CCc3cccc(Cl)c3)CCC1CC2)(c1ccccc1)N1CCSCC1` (single isomer, unassigned) [Example 99] fall in the same range of IC50: 2 to 10 nM for the first, 2 to 10 nM for the second.

`CC(C(=O)O[C@H]1C[N+]2(CCc3cccc(Cl)c3)CCC1CC2)(c1ccccc1)N1CCCCCC1` (single isomer, unassigned) [Example 86] and `CC(C(=O)O[C@H]1C[N+]2(CCc3cccc(F)c3)CCC1CC2)(c1ccccc1)N1CCCCCC1` (single isomer, unassigned) [Example 92] cannot be ordered by IC50: under 2 nM for the first, under 2 nM for the second.

`CC(C(=O)O[C@H]1C[N+]2(CC(=O)Nc3cccc(F)c3)CCC1CC2)(c1ccccc1)N1CCCCCC1` (single isomer, unassigned) [Example 88] and `CC(C(=O)O[C@H]1C[N+]2(CC(=O)Nc3ccccc3)CCC1CC2)(c1ccccc1)N1CCCCCC1` (single isomer, unassigned) [Example 89] cannot be ordered by IC50: under 2 nM for the first, under 2 nM for the second.

`CC(C(=O)O[C@H]1C[N+]2(CC(=O)Nc3ccon3)CCC1CC2)(c1ccccc1)N1CCCCCC1` (single isomer, unassigned) [Example 90] and `CC(C(=O)O[C@H]1C[N+]2(CC(=O)Nc3ccon3)CCC1CC2)(c1ccccc1)N1CCSCC1` (single isomer, unassigned) [Example 102] cannot be ordered by IC50: under 2 nM for the first, under 2 nM for the second.

First: Cc1cnc(NC(=O)C[N+]23CCC(CC2)[C@@H](OC(=O)C(C)(c2ccccc2)N2CCCCCC2)C3)cn1 (single isomer, unassigned) [Example 91]
Second: CC(C(=O)O[C@H]1C[N+]2(CC(=O)Nc3ccon3)CCC1CC2)(c1ccccc1)N1CCCCCC1 (single isomer, unassigned) [Example 111]
The IC50 of the first is lower: under 2 nM for the first, 2 to 10 nM for the second. The first is the more potent here.

`CC(C(=O)O[C@H]1C[N+]2(CCc3ccccc3)CCC1CC2)(c1ccccc1)N1CCCCCC1` (single isomer, unassigned) [Example 93] and `CC(C(=O)O[C@H]1C[N+]2(CCCc3ccccc3)CCC1CC2)(c1ccccc1)N1CCCCCC1` (single isomer, unassigned) [Example 94] cannot be ordered by IC50: under 2 nM for the first, under 2 nM for the second.

First: CC(C(=O)O[C@H]1C[N+]2(CCCc3cccnc3)CCC1CC2)(c1ccccc1)N1CCCCCC1 (single isomer, unassigned) [Example 96]
Second: CC(C(=O)O[C@H]1C[N+]2(CCCc3cccnc3)CCC1CC2)(c1ccccc1)N1CCSCC1 (single isomer, unassigned) [Example 106]
The IC50 of the first is lower: under 2 nM for the first, 2 to 10 nM for the second. The first is the more potent here.

`CC(C(=O)O[C@H]1C[N+]2(CCCOc3ccccc3)CCC1CC2)(c1ccccc1)N1CCCCCC1` (single isomer, unassigned) [Example 97] and `CC(C(=O)O[C@H]1C[N+]2(CCCc3ccccc3)CCC1CC2)(c1ccccc1)N1CCSCC1` (single isomer, unassigned) [Example 104] cannot be ordered by IC50: under 2 nM for the first, under 2 nM for the second.

`CC(C(=O)O[C@H]1C[N+]2(CC(=O)Nc3cccnn3)CCC1CC2)(c1ccccc1)N1CCSCC1` (single isomer, unassigned) [Example 101] and `CC(C(=O)O[C@H]1C[N+]2(CCc3ccccc3)CCC1CC2)(c1ccccc1)N1CCSCC1` (single isomer, unassigned) [Example 103] cannot be ordered by IC50: under 2 nM for the first, under 2 nM for the second.

`CC(C(=O)O[C@H]1C[N+]2(CCCc3ccccc3)CCC1CC2)(c1ccccc1)N1CCSCC1` (single isomer, unassigned) [Example 105] and `CC(C(=O)O[C@H]1C[N+]2(CCOCc3ccc(Cl)cc3)CCC1CC2)(c1ccccc1)N1CCSCC1` (single isomer, unassigned) [Example 108] fall in the same range of IC50: 2 to 10 nM for the first, 2 to 10 nM for the second.

First: C[C@@](C(=O)O[C@H]1C[N+]2(CC(=O)c3ccc(F)cc3F)CCC1CC2)(c1ccccc1)N1CCCCC1 [Example 5, (3R)-1-[2-(2,4-Difluorophenyl)-2-oxoethyl]-3-{[(2S)-2-phenyl-2-piperidin-1-ylpropanoyl]oxy}-1-azoniabicyclo[2.2.2]octane chloride]
Second: C[C@@](C(=O)O[C@H]1C[N+]2(CC(=O)c3cccc(F)c3)CCC1CC2)(c1ccccc1)N1CCCCC1 [Example 7, (3R)-1-[2-(3-Fluorophenyl)-2-oxoethyl]-3-{[(2S)-2-phenyl-2-piperidin-1-ylpropanoyl]oxy}-1-azoniabicyclo[2.2.2]octane bromide]
The IC50 of the first is higher: 2 to 10 nM for the first, under 2 nM for the second.

`C[C@@](C(=O)O[C@H]1C[N+]2(CC(=O)c3cccc(Cl)c3)CCC1CC2)(c1ccccc1)N1CCCCC1` [Example 6, (3R)-1-[2-(3-Chlorophenyl)-2-oxoethyl]-3-{[(2S)-2-phenyl-2-piperidin-1-ylpropanoyl]oxy}-1-azoniabicyclo[2.2.2]octane bromide] and `COc1cccc(C(=O)C[N+]23CCC(CC2)[C@@H](OC(=O)[C@](C)(c2ccccc2)N2CCCCC2)C3)c1` [Example 8, (3R)-1-[2-(3-Methoxyphenyl)-2-oxoethyl]-3-{[(2S)-2-phenyl-2-piperidin-1-ylpropanoyl]oxy}-1-azoniabicyclo[2.2.2]octane bromide] cannot be ordered by IC50: under 2 nM for the first, under 2 nM for the second.

same assay, conditions: read-out: pIC50 (M3 Binding IC50 classes) (converted)

`CC(C(=O)O[C@H]1C[N+]2(CCc3cccc(Cl)c3)CCC1CC2)(c1ccccc1)N1CCCCCC1` (single isomer, unassigned) [Example 87] and `CC(C(=O)O[C@H]1C[N+]2(CCCc3ccccc3)CCC1CC2)(c1ccccc1)N1CCCCCC1` (single isomer, unassigned) [Example 95] cannot be ordered by IC50: under 2 nM for the first, under 2 nM for the second.
